# Where two headings read alike, the source gives them in different places.
# Columns and labels:
# Apo*E3Leiden.hCETP mice = conditions: for HDL cholesterol relative to control group / HDL phospholipids relative to control group / LDL cholesterol relative to control group / LDL phospholipids relative to control group: pooled blood
# Procedure: A test group of 36 female transgenic Apo*E3Leiden/hCETP mice were fed a high fat western-type diet (containing by weight 15% coconut oil and 0.1% cholesterol) to increase plasma cholesterol levels to around 10 mM. After three weeks the mice were subdivided into 6 groups of 6 mice each, matched for plasma cholesterol, triglycerides and age.
# Oral gavage at each separate concentration was administered with an aqueous solution containing by volume 5% ethanol, 4% PEG-400, 1% cremaphor over a period of 1 week per concentration. At the end of each 1 week treatment period, blood samples were collected after a 4 hours fasting period. Mice treated by oral gavage were left alone for 1 week after each collection of blood samples.
# For each subcutaneous depot injection experiment, the appropriate dose in sesame oil solution was injected once and blood samples were collected 24 hours after injection (at the end of a 4 hour fasting period). Mice treated by subcutaneous injection were left alone for 13 days after each collection of blood samples.
# Blood samples from untreated test animals and from animals treated by gavage or subcutaneous depot injection were pooled separately and a lipoprotein profile was measured by AKTA fast protein liquid chromatography (FPLC)(http://www.gmi-inc.com/BioTechLab/Pharmacia%20AKTA.htm) to determine the level of cholesterol and phospholipid associated with HDL and LDL. […] Additionally, food intake levels (per group), body weights, cholesterol levels, and triglyceride levels, were monitored.
# CETP = target: T1, CETP (Oryctolagus cuniculus, UniProt P22687); assay: CETP Inhibitor Drug Screening Kit (Biovision K602-100), cholesterol transfer activity; format: biochemical; conditions: 100 μM
# T1 construct: purchased Biovision Research Products K602-100
# T1 sequence (P22687 2-497): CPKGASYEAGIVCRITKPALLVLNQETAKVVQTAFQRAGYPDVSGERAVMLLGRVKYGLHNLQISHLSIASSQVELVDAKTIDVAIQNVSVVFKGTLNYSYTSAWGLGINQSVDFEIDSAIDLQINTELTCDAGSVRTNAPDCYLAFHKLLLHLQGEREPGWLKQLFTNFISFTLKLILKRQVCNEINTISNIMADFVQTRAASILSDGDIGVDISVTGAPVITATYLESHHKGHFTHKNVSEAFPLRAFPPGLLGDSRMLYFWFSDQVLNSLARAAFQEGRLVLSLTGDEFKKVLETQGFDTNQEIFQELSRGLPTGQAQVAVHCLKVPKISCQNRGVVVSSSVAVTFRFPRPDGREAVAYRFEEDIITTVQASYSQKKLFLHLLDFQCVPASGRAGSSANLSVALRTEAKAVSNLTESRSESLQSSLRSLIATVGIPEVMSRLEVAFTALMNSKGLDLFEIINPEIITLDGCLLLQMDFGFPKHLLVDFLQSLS
# Procedure: The inhibitory activity of FZX-CETP-001 was determined in vitro using a commercially available CETP Inhibitor Drug Screening Kit (catalog # K602-100). The kit is available from Biovision Research Products, located in Mountain View, Calif. USA. Information regarding the kit is available at the following url addresses: http://www.biovisionlabs.com/cetp-pltp.html; and http://www.biovision.com/pdf/K602-100.pdf
# Following the directions provided with the kit, FZX-CETP-001 was assayed for inhibitory activity.
# [1] = oral gavage 0.1 mg/kg/day, 1 week
# [2] = oral gavage 0.3 mg/kg/day, 1 week
# [3] = oral gavage 1.0 mg/kg/day, 1 week
# [4] = serum cholesterol profiles, FIGS. 2A-2D, increasing dose
# [5] = serum phospholipid profiles, increasing dose
# [6] = subcutaneous depot injection 0.3 mg/kg, 24 hours after injection
# [7] = subcutaneous depot injection 1.0 mg/kg, 24 hours after injection
# [8] = subcutaneous depot injection 3.0 mg/kg, 24 hours after injection
smiles,measurement,setting,value
"CC(C)(Oc1ccc(Cl)cc1)C(=O)OCCN1CCN(CCCN2c3ccccc3Sc3ccc(C(F)(F)F)cc32)CC1 [FZX-CETP-0001, Fluphenazine 4-chlorophenoxyisobutyric acid ester]",HDL-C to LDL-C ratio,"Apo*E3Leiden.hCETP mice; lowest tested dosage of 0.1 mg/kg/day by gavage, treated vs untreated control",marked increase
same,"control parameters (food intake levels, body weights, cholesterol levels, triglyceride levels)","Apo*E3Leiden.hCETP mice; mouse, in vivo",no statistically significant difference
same,HDL cholesterol relative to control group,Apo*E3Leiden.hCETP mice; [1],204%
same,HDL phospholipids relative to control group,Apo*E3Leiden.hCETP mice; [1],128%
same,LDL cholesterol relative to control group,Apo*E3Leiden.hCETP mice; [1],81%
same,LDL phospholipids relative to control group,Apo*E3Leiden.hCETP mice; [1],81%
same,HDL cholesterol relative to control group,Apo*E3Leiden.hCETP mice; [2],121%
same,HDL phospholipids relative to control group,Apo*E3Leiden.hCETP mice; [2],136%
same,LDL cholesterol relative to control group,Apo*E3Leiden.hCETP mice; [2],94%
same,LDL phospholipids relative to control group,Apo*E3Leiden.hCETP mice; [2],92%
same,HDL cholesterol relative to control group,Apo*E3Leiden.hCETP mice; [3],269%
same,HDL phospholipids relative to control group,Apo*E3Leiden.hCETP mice; [3],129%
same,LDL cholesterol relative to control group,Apo*E3Leiden.hCETP mice; [3],80%
same,LDL phospholipids relative to control group,Apo*E3Leiden.hCETP mice; [3],96%
same,ratio of HDL-C level in the treated to untreated mice,Apo*E3Leiden.hCETP mice; [4],increases
same,ratio of LDL-C level (total area under the curve) in treated to untreated mice,Apo*E3Leiden.hCETP mice; [4],decreases with increasing dose
same,ratio of HDL-C level in the treated to untreated mice,Apo*E3Leiden.hCETP mice; [5],increases
same,ratio of LDL-C phospholipid level (total area under the curve) in treated to untreated mice,Apo*E3Leiden.hCETP mice; [5],decreases with increasing dose
same,HDL cholesterol relative to control group,Apo*E3Leiden.hCETP mice; [6],286%
same,HDL phospholipids relative to control group,Apo*E3Leiden.hCETP mice; [6],141%
same,LDL cholesterol relative to control group,Apo*E3Leiden.hCETP mice; [6],100%
same,LDL phospholipids relative to control group,Apo*E3Leiden.hCETP mice; [6],71%
same,HDL cholesterol relative to control group,Apo*E3Leiden.hCETP mice; [7],277%
same,HDL phospholipids relative to control group,Apo*E3Leiden.hCETP mice; [7],173%
same,LDL cholesterol relative to control group,Apo*E3Leiden.hCETP mice; [7],78%
same,LDL phospholipids relative to control group,Apo*E3Leiden.hCETP mice; [7],56%
same,HDL cholesterol relative to control group,Apo*E3Leiden.hCETP mice; [8],1119%
same,HDL phospholipids relative to control group,Apo*E3Leiden.hCETP mice; [8],169%
same,LDL cholesterol relative to control group,Apo*E3Leiden.hCETP mice; [8],55%
same,LDL phospholipids relative to control group,Apo*E3Leiden.hCETP mice; [8],70%
same,triglyceride level,Apo*E3Leiden.hCETP mice; subcutaneous injections at doses at or above 1 mg/kg,slightly reduced
same,inhibition of CETP,CETP,100%
same,"Cholesterol Transfer Activity, Fluorescence Units","CETP; Average, N = 2",8312 Fluorescence Units

# From patent publication US20060111346A1, “Methods of modulating high-density lipoprotein cholesterol levels and pharmaceutical formulations for the same” (Fazix Corporation., priority 2004, published 2006)
